Patent US20250352482A1, “AMORPHOUS DOSAGE FORM CONTAINING EBSELEN” (SOUND PHARMACEUTICALS INC., priority 2022, published 2025)

Details: minipig, in vivo
Procedure: Method: The purpose of this study was to determine the pharmacokinetics of ebselen and its metabolites in male and female bama mini-pigs following twice daily (BID) oral administration of two test formulations, control ebselen capsules (Formulation 1) and ebselen-ASD/HME capsules (Formulation 2) at 200 mg/animal for 2.5 days. Three male and three female naïve Bama mini-pigs were assigned to this study. In phase 1, animals received five oral doses (BID on day 1, BID on day 2 and QD on day 3) of Formulation 1: each dose comprised control ebselen capsules (1 (Ebselen capsule, 200 mg+3 placebo capsules). After one week wash out period, the same animals received five oral doses (BID on day 1, BID on day 2 and QD on day 3) of Formulation 2: each dose comprised four Ebselen ASD/HME capsules (Formulation 2), 50 mg each. In each phase, there were 12 hour intervals between dosing. Blood samples were collected at 0.5, 1, 2, 3, 4, 6, 8 and 12 hours post the first and fifth dosing. Concentrations of ebselen, and ebselen glucuronide metabolite in plasma samples were determined by LC-MS/MS.

accumulation on systemic exposure to ebselen: No obvious accumulation
SMILES: O=c1c2ccccc2[se]n1-c1ccccc1 [ebselen, 2-Phenyl-1,2-benzoselenazol-3 (2H)-one]
